Measurements reported in PMC11443485, “Euphane and Tirucallane Triterpenes with Trypanocidal Activity from Euphorbia desmondii” (Journal of Natural Products, 2024).
Where two headings read alike, the source gives them in different places.

Experiments:
RAW264.7 macrophages = assay: Cytotoxicity in RAW264.7 macrophages (mammalian host cells); type: cell-based; conditions: host cell cytotoxicity, read-out: RAW 264.7 IC50
Protocol: [The procedure below names another organism; the source lists this organism under the same test.] To biologically characterize the isolated triterpenoids for their trypanocidal activities, their cytotoxicities in RAW264.7 macrophages (mammalian host cells) and T. cruzi epimastigotes were analyzed.
To assess the selectivities of the isolated compounds, their trypanocidal activities against the epimastigotes were assessed by the Cell Proliferation Kit II (XTT) assay, as previously described.[11] Briefly, 1.5 × 10^5 epimastigotes were seeded per well in 96-well plates. […] In all the experiments, benznidazole was used as the positive control. Following the incubation period, the plates were examined under a microscope for sterility and growth of controls. To the plates, 50 μL of XTT and PMS (Phenazine methosulfate, Sigma-Aldrich, MO, USA) solution (XTT and PMS at 0.5 and 0.025 mg/mL, respectively) was added, and the plates were then incubated at 28 °C for 2.5 h. The parasites were fixed by the addition of 50 μL of MeOH for 15 min before the absorbance was measured at 490 nm on a Tecan plate reader. Results were expressed as percentage cell viability relative to vehicle control or IC50 values calculated by GraphPad Prism version 8.0. All assessments were performed in triplicate in at least two independent experiments.

[1] = system: T. cruzi epimastigotes (Y strain); assay: Trypanocidal activity against T. cruzi epimastigotes, Cell Proliferation Kit II (XTT) assay; type: cell-based, Trypanosoma cruzi; conditions: for Selectivity Index: T. cruzi epimastigotes over the host cell (RAW264.7 macrophages); for IC50: epimastigotes, Y strain, 72 h at 28 °C, XTT, read-out: T. cruzi epimastigote WT-Y IC50; for Increase of the proliferation of the epimastigotes: at the lower micromolar concentrations, trypanocidal at higher concentrations; for Effect on T. cruzi epimastigote proliferation (Figure S130): mean ± SD of three independent experiments each in triplicates
Protocol: Epimastigotes of T. cruzi [Y strain (ATCC 50832)] were maintained in weekly passages in a liver infusion tryptose (LIT) medium supplemented with 10% heat-inactivated fetal bovine serum (hiFBS) at 28 °C, as described previously.[33] The epimastigote cultures in the logarithmic-growth phase (1–5 × 10^7 parasites/mL) were used for the experiments unless stated otherwise. The green fluorescent protein (GFP)-overexpressing epimastigotes were generated by transfection using pTREX-n-eGFP, a gift from Rick Tarleton (Addgene plasmid # 62544; http://n2t.net/addgene:62544;RRID:Addgene_62544), as described previously. The GFP-expressing epimastigotes were cultured in LIT medium supplemented with 10% hiFBS and 500 μg/mL G418.
To assess the selectivities of the isolated compounds, their trypanocidal activities against the epimastigotes were assessed by the Cell Proliferation Kit II (XTT) assay, as previously described.[11] Briefly, 1.5 × 10^5 epimastigotes were seeded per well in 96-well plates. The compounds were added at a single concentration, 10 μM (for the initial screening experiments) or six concentrations ranging from 10–0.3 μM for 72 h at 28 °C. In all the experiments, benznidazole was used as the positive control. Following the incubation period, the plates were examined under a microscope for sterility and growth of controls. To the plates, 50 μL of XTT and PMS (Phenazine methosulfate, Sigma-Aldrich, MO, USA) solution (XTT and PMS at 0.5 and 0.025 mg/mL, respectively) was added, and the plates were then incubated at 28 °C for 2.5 h. The parasites were fixed by the addition of 50 μL of MeOH for 15 min before the absorbance was measured at 490 nm on a Tecan plate reader. Results were expressed as percentage cell viability relative to vehicle control or IC50 values calculated by GraphPad Prism version 8.0. All assessments were performed in triplicate in at least two independent experiments.

[2] = system: T. cruzi amastigotes in infected RAW264.7 cells; assay: Amastigote replication in host cells: FACS quantitation of GFP parasites released from infected RAW264.7 cells; type: cell-based, Trypanosoma cruzi; conditions: GFPY parasite release from infected RAW264.7 cells, FACS after 6 days, mean ± SD of three independent experiments
Protocol: Figure 3 Inhibition activity of 1 against amastigote replication in the host cells. […] (A) Representative brightfield microscopic image of CCL39 fibroblasts infected with Trypanosoma cruzi with amastigotes (arrow). […] (C) Inhibition curves of compound 1 and the positive control, benznidazole, of the GFPY parasite release from the infected RAW264.7 cells were measured by fluorescence-activated cell sorting (FACS) after 6 days.
Fluorescence-activated cell sorting (FACS)-based quantitation of released parasites from infected RAW264.7 cells: The host cells were seeded in 24-well plates at densities of 40,000 and 10,000 cells/mL. The cells were allowed to adhere for 24 h, after which they were infected with trypomastigotes that were harvested by the swim-out procedure described above at a multiplicity of 10. On the next day, the noninternalized trypomastigotes were washed off, and fresh RPMI with 2% fetal bovine serum was added to the wells along with the test substance. In all of the experiments, the screening was performed in triplicate, including tests with DMSO and benznidazole controls. The released parasites were fixed using 4% paraformaldehyde in phosphate-buffered saline for 1 h, after which the samples were analyzed by FACS (BD Biosciences), as described previously.[11]

[3] = Trypanosoma cruzi, RAW264.7, 144 h

C[C@@H](C/C=C/C(C)(C)OO)[C@@H]1CC[C@]2(C)C3=C(C(OO)C[C@@]12C)[C@@]1(C)CC[C@H](O)C(C)(C)[C@@H]1CC3=O (stereo partly drawn) [Compound 5, (23E)-11,25-dihydroperoxytirucalla-8,23-dien-3β-ol-7-one]
IC50 (RAW264.7 macrophages; Mus musculus): 18.4 µM | Selectivity Index [1]: 5.4 | IC50 ([1]; Trypanosoma cruzi): 3.4 µM | Increase of the proliferation of the epimastigotes [1]: 15–30% | Effect on T. cruzi epimastigote proliferation (Figure S130) [1]: significant increase

C/C(C=O)=C\CC[C@H](C)[C@@H]1CC[C@]2(C)C3=C([C@@H](O)C[C@@]12C)[C@@]1(C)CC[C@H](O)C(C)(C)[C@@H]1CC3=O [Compound 7, Desmondiin H]
IC50 (RAW264.7 macrophages; Mus musculus): 23.5 µM | Selectivity Index [1]: 6.4 | IC50 ([1]; Trypanosoma cruzi): 3.7 µM

CC(=O)CCC[C@H](C)[C@@H]1CC[C@]2(C)C3=C(CC[C@@]12C)[C@@]1(C)CC[C@H](O)C(C)(C)[C@@H]1CC3=O [Compound 3, Desmondiin D]
IC50 (RAW264.7 macrophages; Mus musculus): 31 µM | Selectivity Index [1]: 7.8 | IC50 ([1]; Trypanosoma cruzi): 4 µM

C[C@H](C/C=C/C(C)(C)OO)[C@@H]1CC[C@]2(C)C3=C(CC[C@@]12C)[C@@]1(C)CC[C@H](O)C(C)(C)[C@@H]1CC3=O [Compound 1, (23E)-25-hydroperoxyeupha-8,23-diene-3β-ol-7-one]
IC50 (RAW264.7 macrophages; Mus musculus): 38.1 µM | Selectivity Index [1]: 8.5 | IC50 ([1]; Trypanosoma cruzi): 4.5 µM | IC50 ([2]; listed as desmondiin A): 2.4 ± 0.3 µM | IC50 [2, 3]: 2.5 ± 0.3 µM

3β-hydroxy-27-nor-tirucalla-8-en-7,11,25-trione [Compound 12]
IC50 (RAW264.7 macrophages): 24.4 µM | Selectivity Index [1]: 6.6 | Increase of the proliferation of the epimastigotes [1]: 15–30% | IC50 [1]: 3.7 µM | Effect on T. cruzi epimastigote proliferation (Figure S130) [1]: significant increase

CC(C)=CCC[C@@H](C)[C@@H]1CC[C@]2(C)C3=C(C(=O)C[C@@]12C)[C@@]1(C)CC[C@H](O)C(C)(C)[C@@H]1C[C@H]3O [Compound 8, eupha-8,24-dien-3β,7α-diol-11-one]
IC50 (RAW264.7 macrophages; Mus musculus): 28.4 µM | Selectivity Index [1]: 5.8 | IC50 ([1]; Trypanosoma cruzi): 4.9 µM | Increase of the proliferation of the epimastigotes [1]: 15–30% | Effect on T. cruzi epimastigote proliferation (Figure S130) [1]: significant increase

O=C(Cn1ccnc1[N+](=O)[O-])NCc1ccccc1 [benznidazole, reference compound]
IC50 [2]: 3.2 ± 0.5 µM | IC50 [2, 3]: 3.6 ± 0.4 µM

CC(C)C(=O)CC[C@@H](C)[C@@H]1CC[C@]2(C)C3=C(CC[C@@]12C)[C@@]1(C)CC[C@H](O)C(C)(C)[C@@H]1CC3=O [Compound 2, eupha-8-ene-3β-ol-7,24-dione]
IC50 (RAW264.7 macrophages; Mus musculus): 31.5 µM | Selectivity Index [1]: 6.3 | IC50 ([1]; Trypanosoma cruzi): 5 µM | Effect on T. cruzi epimastigote proliferation (Figure S130) [1]: significant increase
